Reference: patent US20220339143A1, “TAK-925 FOR USE IN TREATING NARCOLEPSY” (Takeda Pharmaceutical Company Limited, priority 2019, published 2022)
Like-named read-outs stand apart in the source and are kept apart here.

Test: Single dose PK in healthy subjects (Cohorts 1, 2, S1 and S2), plasma
Format: in vivo, human
Conditions: human, plasma, iv; for concentration at 3 h after end of infusion: 3 hr After End of Infusions; for concentration at 4 h after end of infusion: 4 hr After End of Infusions; for concentration at 6 h after end of infusion: 6 hr After End of Infusions; for concentration at 10 h after end of infusion: 10 hr After End of Infusions; for concentration at 15 h after end of infusion: 15 hr After End of Infusions
Protocol: This study investigates (i) the safety and tolerability of Compound A (methyl (2R,3S)-3-((methylsulfonyl)amino)-2-(((cis-4-phenylcyclohexyl)oxy)methyl)piperidine-1-carboxylate) when a single dose given as a 9 hour continuous IV infusion is administered to healthy adults, healthy elderly subjects and patients with narcolepsy type 1 (NT1); (ii) the pharmacokinetics of Compound A when a single dose given as a 9 hour continuous IV infusion is administered to healthy adults, healthy elderly subjects and patients with narcolepsy type 1; and (iii) the pharmacodynamics (PD) effects of Compound A, primarily by evaluation of the sleep latency on MWT when a single dose given as a 9 hour continuous IV infusion is administered to patients with narcolepsy type 1.
Pharmacokinetics: Concentrations of Compound A in plasma, and CSF, and pharmacokinetics parameters.
On average, the time to reach the plateau appeared to be approximately 3 to 4 hours after the start of infusion. […] After switching off the IV infusion, Compound A plasma concentrations declined rapidly and in a biphasic manner with a mean terminal disposition phase t1/2z ranging approximately from 3.4 to 5.1 hours across all doses. […] Table 5 provides a summary of plasma concentrations of Compound A after a single IV infusion in healthy subjects. Table 6 provides a summary of pharmacokinetic parameters of Compound A after a single IV infusion in healthy subjects.

[1] = 240 mg, 240 mg single IV infusion, read-out: Plasma Concentration of Cmpd A, Maximum
[2] = 240 mg, 240 mg single IV infusion, read-out: Plasma Concentration of Cmpd A, Median
[3] = 240 mg, 240 mg single IV infusion, read-out: Plasma Concentration of Cmpd A, Q3
[4] = 240 mg, 240 mg single IV infusion, read-out: Plasma Concentration of Cmpd A, Q1

COC(=O)N1CCC[C@H](NS(C)(=O)=O)[C@@H]1CO[C@H]1CC[C@@H](c2ccccc2)CC1 [Compound A, methyl (2R,3S)-3-((methylsulfonyl)amino)-2-(((cis-4-phenylcyclohexyl)oxy)methyl)piperidine-1-carboxylate]
Cmax (134.4 mg, 134.4 mg single IV infusion, healthy subjects, read-out: Cmax Geo Mean): 305 ng/mL | Cmax (134.4 mg, 134.4 mg single IV infusion, healthy subjects, read-out: Cmax Mean): 308 ng/mL | Cmax (134.4 mg, 134.4 mg single IV infusion, healthy subjects, read-out: Cmax Median): 314 ng/mL | Vd (134.4 mg, 134.4 mg single IV infusion, healthy subjects, read-out: Vss Mean): 88.5 L | Vd (134.4 mg, 134.4 mg single IV infusion, healthy subjects, read-out: Vss Median): 87 L | Vd (134.4 mg, 134.4 mg single IV infusion, healthy subjects, read-out: Vz Mean): 285 L | Vd (134.4 mg, 134.4 mg single IV infusion, healthy subjects, read-out: Vz Median): 276 L | Tmax (134.4 mg, 134.4 mg single IV infusion, healthy subjects, read-out: tmax Mean): 6.33 h | Tmax (134.4 mg, 134.4 mg single IV infusion, healthy subjects, read-out: tmax Median): 6.5 h | AUC (180 mg, 180 mg single IV infusion, healthy subjects, read-out: AUC24 Geo Mean): 2990 ng·h/mL | AUC (180 mg, 180 mg single IV infusion, healthy subjects, read-out: AUC24 Mean): 3000 ng·h/mL | AUC (180 mg, 180 mg single IV infusion, healthy subjects, read-out: AUC24 Median): 3040 ng·h/mL | AUC(0-inf) (180 mg, 180 mg single IV infusion, healthy subjects, read-out: AUCinf Geo Mean): 3010 ng·h/mL | AUC(0-inf) (180 mg, 180 mg single IV infusion, healthy subjects, read-out: AUCinf Mean): 3020 ng·h/mL | AUC(0-inf) (180 mg, 180 mg single IV infusion, healthy subjects, read-out: AUCinf Median): 3050 ng·h/mL | AUC(0-t) (180 mg, 180 mg single IV infusion, healthy subjects, read-out: AUClast Geo Mean): 2990 ng·h/mL | AUC(0-t) (180 mg, 180 mg single IV infusion, healthy subjects, read-out: AUClast Mean): 3000 ng·h/mL | AUC(0-t) (180 mg, 180 mg single IV infusion, healthy subjects, read-out: AUClast Median): 3040 ng·h/mL | clearance (180 mg, 180 mg single IV infusion, healthy subjects, read-out: CL Mean (converted)): 997 mL/min | clearance (180 mg, 180 mg single IV infusion, healthy subjects, read-out: CL Median (converted)): 985 mL/min | concentration at 9 h (180 mg, 180 mg single IV infusion, healthy subjects, read-out: Ceoi Geo Mean): 324 ng/mL | concentration at 9 h (180 mg, 180 mg single IV infusion, healthy subjects, read-out: Ceoi Mean): 325 ng/mL | concentration at 9 h (180 mg, 180 mg single IV infusion, healthy subjects, read-out: Ceoi Median): 316 ng/mL | Cmax (180 mg, 180 mg single IV infusion, healthy subjects, read-out: Cmax Geo Mean): 344 ng/mL | Cmax (180 mg, 180 mg single IV infusion, healthy subjects, read-out: Cmax Mean): 345 ng/mL | Cmax (180 mg, 180 mg single IV infusion, healthy subjects, read-out: Cmax Median): 358 ng/mL | Vd (180 mg, 180 mg single IV infusion, healthy subjects, read-out: Vss Mean): 90.8 L | Vd (180 mg, 180 mg single IV infusion, healthy subjects, read-out: Vss Median): 81.5 L | Vd (180 mg, 180 mg single IV infusion, healthy subjects, read-out: Vz Mean): 291 L | Vd (180 mg, 180 mg single IV infusion, healthy subjects, read-out: Vz Median): 268 L | Tmax (180 mg, 180 mg single IV infusion, healthy subjects, read-out: tmax Mean): 6.33 h | Tmax (180 mg, 180 mg single IV infusion, healthy subjects, read-out: tmax Median): 6.5 h | AUC (240 mg, 240 mg single IV infusion, healthy subjects, read-out: AUC24 Geo Mean): 4540 ng·h/mL | AUC (240 mg, 240 mg single IV infusion, healthy subjects, read-out: AUC24 Mean): 4580 ng·h/mL | AUC (240 mg, 240 mg single IV infusion, healthy subjects, read-out: AUC24 Median): 4400 ng·h/mL | AUC(0-inf) (240 mg, 240 mg single IV infusion, healthy subjects, read-out: AUCinf Geo Mean): 4580 ng·h/mL | AUC(0-inf) (240 mg, 240 mg single IV infusion, healthy subjects, read-out: AUCinf Mean): 4630 ng·h/mL | AUC(0-inf) (240 mg, 240 mg single IV infusion, healthy subjects, read-out: AUCinf Median): 4430 ng·h/mL | AUC(0-t) (240 mg, 240 mg single IV infusion, healthy subjects, read-out: AUClast Geo Mean): 4540 ng·h/mL | AUC(0-t) (240 mg, 240 mg single IV infusion, healthy subjects, read-out: AUClast Mean): 4580 ng·h/mL | AUC(0-t) (240 mg, 240 mg single IV infusion, healthy subjects, read-out: AUClast Median): 4400 ng·h/mL | clearance (240 mg, 240 mg single IV infusion, healthy subjects, read-out: CL Mean (converted)): 880 mL/min | clearance (240 mg, 240 mg single IV infusion, healthy subjects, read-out: CL Median (converted)): 906 mL/min | concentration at 9 h (240 mg, 240 mg single IV infusion, healthy subjects, read-out: Ceoi Geo Mean): 493 ng/mL | concentration at 9 h (240 mg, 240 mg single IV infusion, healthy subjects, read-out: Ceoi Mean): 497 ng/mL | concentration at 9 h (240 mg, 240 mg single IV infusion, healthy subjects, read-out: Ceoi Median): 481 ng/mL | Cmax (240 mg, 240 mg single IV infusion, healthy subjects, read-out: Cmax Geo Mean): 506 ng/mL | Cmax (240 mg, 240 mg single IV infusion, healthy subjects, read-out: Cmax Mean): 512 ng/mL | Cmax (240 mg, 240 mg single IV infusion, healthy subjects, read-out: Cmax Median): 483 ng/mL | Vd (240 mg, 240 mg single IV infusion, healthy subjects, read-out: Vss Mean): 97.5 L | Vd (240 mg, 240 mg single IV infusion, healthy subjects, read-out: Vz Mean): 313 L | Vd (240 mg, 240 mg single IV infusion, healthy subjects, read-out: Vz Median): 293 L | Tmax (240 mg, 240 mg single IV infusion, healthy subjects, read-out: tmax Mean): 5.33 h | Tmax (240 mg, 240 mg single IV infusion, healthy subjects, read-out: tmax Median): 4 h | concentration at 0.5 h (240 mg, 240 mg single IV infusion, 0.5 hr, read-out: Plasma Concentration of Cmpd A, Maximum): 400 ng/mL | concentration at 0.5 hr (240 mg, 240 mg single IV infusion, 0.5 hr, read-out: Plasma Concentration of Cmpd A, Median): 264 ng/mL | concentration at 0.5 hr (240 mg, 240 mg single IV infusion, 0.5 hr, read-out: Plasma Concentration of Cmpd A, Q3): 368 ng/mL | concentration at 1 h (240 mg, 240 mg single IV infusion, 1 hr, read-out: Plasma Concentration of Cmpd A, Maximum): 465 ng/mL | concentration at 1 hr (240 mg, 240 mg single IV infusion, 1 hr, read-out: Plasma Concentration of Cmpd A, Median): 318 ng/mL | concentration at 1 hr (240 mg, 240 mg single IV infusion, 1 hr, read-out: Plasma Concentration of Cmpd A, Q3): 418 ng/mL | concentration at 1.5 h (240 mg, 240 mg single IV infusion, 1.5 hr, read-out: Plasma Concentration of Cmpd A, Maximum): 480 ng/mL | concentration at 1.5 hr (240 mg, 240 mg single IV infusion, 1.5 hr, read-out: Plasma Concentration of Cmpd A, Median): 370 ng/mL | concentration at 1.5 hr (240 mg, 240 mg single IV infusion, 1.5 hr, read-out: Plasma Concentration of Cmpd A, Q3): 463 ng/mL | concentration at 2 h (240 mg, 240 mg single IV infusion, 2 hr, read-out: Plasma Concentration of Cmpd A, Maximum): 482 ng/mL | concentration at 2 hr (240 mg, 240 mg single IV infusion, 2 hr, read-out: Plasma Concentration of Cmpd A, Median): 399 ng/mL | concentration at 2 hr (240 mg, 240 mg single IV infusion, 2 hr, read-out: Plasma Concentration of Cmpd A, Q3): 452 ng/mL | concentration at 3 h after end of infusion [1]: 91 ng/mL | concentration at 3 h after end of infusion [2]: 75.5 ng/mL | concentration at 3 h after end of infusion [3]: 87.1 ng/mL | concentration at 3 h (240 mg, 240 mg single IV infusion, 3 hr, read-out: Plasma Concentration of Cmpd A, Maximum): 582 ng/mL | concentration at 3 hr (240 mg, 240 mg single IV infusion, 3 hr, read-out: Plasma Concentration of Cmpd A, Median): 422 ng/mL | concentration at 3 h (240 mg, 240 mg single IV infusion, 3 hr, read-out: Plasma Concentration of Cmpd A, Q3): 515 ng/mL | concentration at 4 h after end of infusion [1]: 65.1 ng/mL | concentration at 4 h after end of infusion [2]: 56.5 ng/mL | concentration at 4 h after end of infusion [4]: 53.1 ng/mL | concentration at 4 h after end of infusion [3]: 62.7 ng/mL | concentration at 4 h (240 mg, 240 mg single IV infusion, 4 hr, read-out: Plasma Concentration of Cmpd A, Maximum): 650 ng/mL | concentration at 4 hr (240 mg, 240 mg single IV infusion, 4 hr, read-out: Plasma Concentration of Cmpd A, Median): 459 ng/mL | concentration at 4 h (240 mg, 240 mg single IV infusion, 4 hr, read-out: Plasma Concentration of Cmpd A, Q3): 579 ng/mL | concentration at 6 h after end of infusion [1]: 38.2 ng/mL | concentration at 6 h after end of infusion [2]: 28.4 ng/mL | concentration at 6 h after end of infusion [4]: 23 ng/mL | concentration at 6 h after end of infusion [3]: 36.9 ng/mL | concentration at 6 h (240 mg, 240 mg single IV infusion, 6 hr, read-out: Plasma Concentration of Cmpd A, Maximum): 532 ng/mL | concentration at 6 hr (240 mg, 240 mg single IV infusion, 6 hr, read-out: Plasma Concentration of Cmpd A, Median): 410 ng/mL | concentration at 6 h (240 mg, 240 mg single IV infusion, 6 hr, read-out: Plasma Concentration of Cmpd A, Q3): 514 ng/mL | concentration at 8 h (240 mg, 240 mg single IV infusion, 8 hr, read-out: Plasma Concentration of Cmpd A, Maximum): 562 ng/mL | concentration at 8 hr (240 mg, 240 mg single IV infusion, 8 hr, read-out: Plasma Concentration of Cmpd A, Median): 470 ng/mL | concentration at 8 hr (240 mg, 240 mg single IV infusion, 8 hr, read-out: Plasma Concentration of Cmpd A, Q3): 542 ng/mL | concentration at 9 h (240 mg, 240 mg single IV infusion, 9 hr, read-out: Plasma Concentration of Cmpd A, Maximum): 613 ng/mL | concentration at 9 hr (240 mg, 240 mg single IV infusion, 9 hr, read-out: Plasma Concentration of Cmpd A, Median): 481 ng/mL | concentration at 9 hr (240 mg, 240 mg single IV infusion, 9 hr, read-out: Plasma Concentration of Cmpd A, Q3): 539 ng/mL | concentration at 10 h after end of infusion [1]: 18.6 ng/mL | concentration at 10 h after end of infusion [2]: 16.6 ng/mL | concentration at 10 h after end of infusion [4]: 10.3 ng/mL | concentration at 10 h after end of infusion [3]: 17.5 ng/mL | concentration at 15 h after end of infusion [1]: 9.71 ng/mL | concentration at 15 h after end of infusion [2]: 7.64 ng/mL | concentration at 15 h after end of infusion [4]: 3.39 ng/mL | concentration at 15 h after end of infusion [3]: 8.82 ng/mL | clearance (IV administration, healthy subjects, read-out: mean estimates of plasma clearance): 717 to 1000 mL/min
